Measured values from ChEMBL document CHEMBL2203104, “Recent advances in antitubercular natural products” (Eur J Med Chem, 2012).
Values after ≈ are worked out from the molar mass of the structure shown.

Experiments:
[1] = tested on: Mycobacterium tuberculosis; test: Antimycobacterial activity against Mycobacterium tuberculosis 90-221387; format: functional
[2] = tested on: Mycobacterium tuberculosis; test: Antimycobacterial activity against Mycobacterium tuberculosis H37Rv; format: functional
[3] = tested on: Vero; test: Cytotoxicity against african green monkey Vero cells; format: cell-based; settings: Chlorocebus sabaeus
[4] = Selectivity index, ratio of IC50 for african green monkey Vero cells to MIC for Mycobacterium tuberculosis H37Rv; format: functional
[5] = tested on: Mycobacterium tuberculosis; test: Antimycobacterial activity against Mycobacterium tuberculosis isolate CIBIN/UMF 15:19; format: functional
[6] = tested on: Mycobacterium tuberculosis; test: Antimycobacterial activity against Mycobacterium tuberculosis H37Rv ATCC 27294; format: functional
[7] = tested on: Mycobacterium tuberculosis; test: Antimycobacterial activity against Mycobacterium tuberculosis; format: functional
[8] = tested on: Mycobacterium tuberculosis; test: Antimycobacterial activity against Mycobacterium tuberculosis at 128 ug/mL; format: functional; settings: read-out: GI
[9] = tested on: Mycobacterium tuberculosis; test: Antimycobacterial activity against Mycobacterium tuberculosis isolate no. 246; format: functional
[10] = Selectivity index, ratio of IC50 for african green monkey Vero cells to MIC for Mycobacterium tuberculosis H37Ra; format: functional
[11] = tested on: Mycobacterium tuberculosis; test: Antimycobacterial activity against Mycobacterium tuberculosis H37Ra; format: functional
[12] = Inhibition of Mycobacterium tuberculosis RNA polymerase
[13] = biological target: T1, 3-oxoacyl-[acyl-carrier-protein] synthase 1 (Mycobacterium tuberculosis, UniProt P9WQD9); test: Inhibition of Mycobacterium tuberculosis H37Rv Fab1
T1 sequence (P9WQD9 whole entry): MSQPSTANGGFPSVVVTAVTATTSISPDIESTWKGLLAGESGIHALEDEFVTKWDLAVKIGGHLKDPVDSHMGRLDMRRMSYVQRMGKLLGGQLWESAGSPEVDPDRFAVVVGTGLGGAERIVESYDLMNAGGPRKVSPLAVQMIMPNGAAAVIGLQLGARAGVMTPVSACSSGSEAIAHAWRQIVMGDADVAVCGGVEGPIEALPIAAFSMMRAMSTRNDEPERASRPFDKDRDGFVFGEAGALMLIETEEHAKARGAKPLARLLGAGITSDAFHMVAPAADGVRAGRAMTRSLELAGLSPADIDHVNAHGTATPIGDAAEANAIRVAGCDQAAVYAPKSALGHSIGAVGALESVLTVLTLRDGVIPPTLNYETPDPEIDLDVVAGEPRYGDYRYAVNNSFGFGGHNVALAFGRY

[14] = Mycobacterium tuberculosis, H37Rv, read-out: MIC

COc1cc([C@H]2O[C@@H](c3cc(OC)c4c(c3)OCO4)[C@@H](C)[C@@H]2C)cc(OC)c1OC [BEILSCHMIN A]
MIC [1]: 2.5 µg/mL (≈ 6 µM)

C=C[C@@]1(C)[C@H](Cl)C[C@@H]2C(C)(C)c3cccc4[nH]c5c(c34)[C@@]2(O)[C@]1(C#N)[C@@]1(CO1)C5(C)C [FISCHAMBIGUINE B]
MIC [2, 14]: 2 µM
IC50 [3]: 128 µM
Selectivity Index [4]: 64

C#C[C@@]12O[C@]1(C=O)[C@]1(C)CC[C@H]3C(C)(C)CCC[C@]3(C)[C@H]1CC2=O [ESCOBARINE A]
MIC [5]: 12.5 µg/mL (≈ 38.1 µM)
MIC [6]: 25 µg/mL (≈ 76.1 µM)

CCCOC(=O)[C@]12CC[C@@]3(C)C[C@H]4O[C@@]4(C)[C@H]4O[C@H]4[C@H]3[C@@H]1CC[C@@H]2C(C)C
MIC [5]: 6.25 µg/mL (≈ 16.6 µM)
MIC [6]: 6.25 µg/mL (≈ 16.6 µM)

CC(C)(O)c1ccc2c(c1)CC[C@H]1[C@](C)(C(=O)O)CCC[C@]21C
MIC [7]: 50 µg/mL

COc1ccc(C(=O)OC2=C(C(C)C)C(=O)C3=C(C2=O)[C@@]2(C)CCCC(C)(C)[C@@H]2[C@H](O)[C@H]3OC(C)=O)cc1
MIC [2, 14]: 3.12 µg/mL
IC50 [3]: 2.58 µg/mL

C=C(C)[C@@H]1CCC2=C[C@@H](OC2=O)C2=C(C)C[C@](O)(C2=O)[C@H](C)[C@@H](O)C1=O [CORALLOLIDE B]
inhibition of growth at 128 µg/mL [8]: 95%

COc1cc([C@H]2O[C@@H](c3cc(OC)c(OC)c(OC)c3)[C@@H](C)[C@@H]2C)cc(OC)c1OC [BEILSCHMIN B]
MIC [1]: 7.5 µg/mL (≈ 17.3 µM)

COc1c(O)cc2oc3cc(O)c(CC=C(C)C)c(O)c3c(=O)c2c1CC=C(C)C [MANGOSTIN]
MIC [7]: 15.2 µg/mL

CCCCOC(=O)[C@]12CC[C@@]3(C)C[C@H]4O[C@@]4(C)[C@H]4O[C@H]4[C@H]3[C@@H]1CC[C@@H]2C(C)C
MIC [5]: 6.25 µg/mL (≈ 16 µM)
MIC [6]: 6.25 µg/mL (≈ 16 µM)

CC[C@@H](CO)NCCN[C@@H](CC)CO [ETHAMBUTOL]
MIC [1]: 6.2 µg/mL (≈ 30.3 µM)

C/C=C/C(=O)OC[C@H]1O[C@@H](Oc2cccc3cc(C)c(C(C)=O)c(O)c23)[C@H](O)[C@@H](O)[C@@H]1O [RUMEXNEPOSIDE A]
MIC [7]: 20.7 µM

CC(C)[C@]12C=C3CC[C@H]4[C@](C)(C(=O)O)CCC[C@]4(C)[C@]3(CC1)OO2
MIC [7]: 50 µg/mL

CC(=O)c1c(C)cc2cccc(O[C@@H]3O[C@H](CO)[C@@H](O)[C@H](O)[C@H]3O)c2c1O
MIC [7]: 26.6 µM

CC(=O)OC[C@H]1O[C@@H](Oc2cccc3c2C(=O)c2c(O)cc(C)cc2C3=O)[C@H](O)[C@@H](O)[C@@H]1O
MIC [7]: 4.1 µM

CCCOC(=O)[C@]12CC[C@@]3(C)CC[C@@](C)(O)C=C[C@H]3[C@@H]1CC[C@@H]2C(C)C
MIC [5]: 6.25 µg/mL (≈ 17.2 µM)
MIC [6]: 6.25 µg/mL (≈ 17.2 µM)

COc1cc([C@H]2O[C@@]3(c4cc(OC)c5c(c4)OCO5)O[C@@]3(C)[C@@H]2C)cc(OC)c1OC
MIC [1]: 30 µg/mL (≈ 69.7 µM)

CC(C)C(O)C(=O)N/C=C\C=C/NC(=O)C(O)C(C)C (configuration not stated) [PHOMOENAMIDE]
MIC [7]: 6.25 µg/mL

O=C(CCCCCCCCCCCC[C@H]1C=CCC1)OCC(O)CO (some centres not stated) [ANTHELMINTHICINS C]
MIC [7]: 11.3 µM
MIC [2, 14]: 4.38 µM

CCCCCC(CC(=O)N1N=CCCC1C(=O)N[C@H]1COC(=O)[C@H]2CCCNN2C(=O)[C@H](C)NC(=O)[C@@H](CC(C)C)NC1=O)C(=O)O (some centres not stated) [LYDIAMYCIN A]
MIC [2, 14]: 12.5 µg/mL
MIC [9]: 25 µg/mL (≈ 37.7 µM)

COc1cc(O[C@@H]2O[C@H](CO)[C@@H](O)[C@H](O)[C@H]2O)c2c(O)c(C(C)=O)c(C)cc2c1
MIC [7]: 8.9 µM

COc1cc([C@H]2O[C@@]3(c4cc(OC)c5c(c4)OCO5)O[C@@]3(C)[C@@H]2C)cc2c1OCO2 [BEILSCHMIN D]
MIC [1]: 50 µg/mL (≈ 121 µM)

C[C@@H]1C[C@H](C)C(=O)/C=C/C2[C@@H](O)C3OC4=C(C(=O)O[C@@]42C[C@H]3C)C1=O (stereo in doubt; 208)
MIC [7]: 8.3 µg/mL
MIC [2]: 3.6 µM

COC1=CC(=O)c2c(cc(OC)c(C(C)OC(C)=O)c2O)C1=O (configuration not stated)
Selectivity Index [10]: <1
IC50 [3]: 0.33 µg/mL
MIC [11]: 0.39 µg/mL

C=C(CC[C@@H](C)[C@H]1CC[C@H]2[C@@H]3C(C=O)[C@]4(O)C[C@@H](O)CC[C@]4(C)[C@H]3CC[C@]12C)C(C)C (some centres not stated) [PARGUESTEROL B]
MIC [2, 14]: 11.2 µg/mL
IC50 [3]: 52 µg/mL
Selectivity Index [4]: <7

CC(=O)O[C@H]1C[C@]2(C)[C@@H](C(C)C)CC[C@H]2[C@]23C[C@H]2[C@](C)(O)CC[C@]13C [AZORELLANOL]
MIC [5]: 12.5 µg/mL (≈ 35.9 µM)
MIC [6]: 12.5 µg/mL (≈ 35.9 µM)

CCC/C(C)=C/C=C(\C)C(=O)c1c(O)cc([C@H](C)CC/C=C/NC(=O)OC)oc1=O [MYXOPORIN A]
IC50 [12]: 1 µM

Cc1cc(O)cc2c1C[C@@H]1C[C@@H](O)[C@]3(C)Oc4cc(O)cc(C)c4C[C@@H]3CC(C)(C)/C=C/C[C@@]1(C)C2 [RAMIFERIN]
Selectivity Index [10]: 0.7
IC50 [3]: 9.7 µM
MIC [11]: 12.7 µM

CC(=O)OC[C@@]12CC[C@]3(C)[C@@H](C(C)C)CC[C@H]3[C@@]13C[C@H]3[C@](C)(O)CC2
MIC [5]: 12.5 µg/mL (≈ 35.9 µM)
MIC [6]: 12.5 µg/mL (≈ 35.9 µM)

COc1cc([C@H]2O[C@@]3(c4cc(OC)c(OC)c(OC)c4)O[C@@]3(C)[C@@H]2C)cc(OC)c1OC
MIC [1]: 40 µg/mL (≈ 89.6 µM)

CC(C)[C@H]1CC[C@@H]2[C@]1(C)CC(=O)[C@@]1(C)CC[C@@](C)(O)[C@@H]3C[C@@]231 [AZORELLANONE]
MIC [5]: 12.5 µg/mL (≈ 41.1 µM)
MIC [6]: 12.5 µg/mL (≈ 41.1 µM)

C=C[C@@]1(C)C=C2CC[C@@H]3[C@](C)(CCC[C@@]3(C)C(=O)O)[C@H]2CC1 [PIMARIC ACID]
MIC [7]: 50 µg/mL

O=C1c2ccccc2-c2c3c(cc4ccnc1c24)OCO3 [LIRIODENINE]
MIC [7]: 12.5 µg/mL

CC(C)=CCC/C(C)=C/CC/C(C)=C/CC/C=C(\C)CC/C=C(\C)CCC=C(C)C [SQUALENE]
MIC [1]: 28 µg/mL (≈ 68.2 µM)

COc1c(O)cc2c(c1CC=C(C)C)C(=O)c1c(cc(OS(=O)(=O)O)c(CC=C(C)C)c1O)C2
MIC [7]: 6.75 µM

O=C1c2cccnc2-c2nccc3c2c1nc1ccccc13 [ASCIDIDEMIN]
MIC [2, 14]: 0.35 µM
IC50 [3]: 0.14 µM
Selectivity Index [4]: <1

C=C(CC[C@@H](C)[C@H]1CC[C@H]2[C@@H]3C(C=O)=C4C[C@@H](O)CC[C@]4(C)[C@H]3CC[C@]12C)C(C)C [PARGUESTEROL A]
MIC [2, 14]: 7.8 µg/mL
IC50 [3]: 52 µg/mL
Selectivity Index [4]: <7

C/C=C/C/C=C(\C)C(O)CC/C(C)=C/C=C(\C)C(=O)c1c(O)cc([C@H](C)CC/C=C/NC(=O)OC)oc1=O (some centres not stated) [CORALLOPYRONIN A]
IC50 [12]: 4 µM

CCCCCCCc1cc(O)c(CCCCCC)c(=O)o1 [PSEUDOPYRONINES B]
MIC [2, 14]: 0.78 µg/mL
IC50 [13]: 3.8 µM

C/C(=C\Cc1ccccc1)CC[C@@]1(O)C[C@H]2C[C@@H](C/C(C)=C/C/C=C/C/C(CC(=O)O)=C\C(=O)O2)O1 [RIPOSTATIN A]
IC50 [12]: 0.8 µM

CC(C)[C@@H](C)/C=C/[C@@H](C)[C@H]1CC[C@@H]2[C@]1(C)CC[C@H]1[C@]23C=C[C@]2(C[C@@H](O)CC[C@]12C)OO3 [ERGOSTEROL PEROXIDE]
MIC [2, 14]: 3.5 µM
Selectivity Index [4]: >57

CC1COc2c(N3CCN(C)CC3)c(F)cc3c(=O)c(C(=O)O)cn1c23 (configuration not stated) [OFLOXACIN]
MIC [5]: 0.125 µg/mL (≈ 0.346 µM)
MIC [6]: 0.125 µg/mL (≈ 0.346 µM)

C#C[C@@]12O[C@]1(CO)[C@]1(C)CC[C@H]3C(C)(C)CCC[C@]3(C)[C@H]1CC2=O [ESCOBARINE B]
MIC [5]: 50 µg/mL (≈ 151 µM)
MIC [6]: 50 µg/mL (≈ 151 µM)

CCCCCCC[C@H]1C[C@H]2CCC3=C(C(=O)OCCCCNC(=N)N)C(CCCCC)N=C(N1)N32 (some centres not stated)
MIC [6]: 34.7 µg/mL (≈ 71 µM)

C=C(C)[C@H]1CC[C@@H]2C(=O)O[C@H]3[C@@H]2O[C@@]2(O[C@@H]1C(=O)[C@@]1(C)O[C@@H]21)[C@@H]3C(=C)C [BIPINNAPTEROLIDE B]
inhibition of growth at 128 µg/mL [8]: 66%

CC(C)[C@H]1CC[C@H]2[C@@H]3C=C[C@](C)(O)CC[C@]3(C)CC[C@]12CO [MULINOL]
MIC [5]: 12.5 µg/mL (≈ 40.8 µM)
MIC [6]: 12.5 µg/mL (≈ 40.8 µM)

CSCCC(NC(=O)NC(Cc1c[nH]c2ccccc12)C(=O)O)C(=O)NC(C(=O)N/C=C1\C[C@@H](O)[C@H](n2ccc(=O)[nH]c2=O)O1)C(C)N(C)C(=O)C(N)Cc1cccc(O)c1 (some centres not stated) [SANSANMYCIN A]
MIC [6]: 16 µg/mL (≈ 18.5 µM)

COc1cc(O)c2c(O)c(C(C)=O)c(C)cc2c1 [TORACHRYSONE]
MIC [7]: 6.1 µM

COc1cccc2c1C(=O)c1nccc3cc4c(c-2c13)OCO4 [OXOSTEPHANINE]
MIC [7]: 50 µg/mL
